Experimental data reported in article PMC6149824, “Design and Synthesis of New Benzothiazole Compounds as Selective hMAO-B Inhibitors” (Molecules : A Journal of Synthetic Chemistry and Natural …, 2017).
“Also recorded” adds a separate entry of the source.

Legend:
hMAO-A = target: T1, hMAO-A (Homo sapiens, UniProt P21397); assay: in vitro fluorometric hMAO-A inhibition assay (Amplex Red); assay type: biochemical; conditions: read-out: MAO A Inhibition %
T1 sequence (P21397 1-527): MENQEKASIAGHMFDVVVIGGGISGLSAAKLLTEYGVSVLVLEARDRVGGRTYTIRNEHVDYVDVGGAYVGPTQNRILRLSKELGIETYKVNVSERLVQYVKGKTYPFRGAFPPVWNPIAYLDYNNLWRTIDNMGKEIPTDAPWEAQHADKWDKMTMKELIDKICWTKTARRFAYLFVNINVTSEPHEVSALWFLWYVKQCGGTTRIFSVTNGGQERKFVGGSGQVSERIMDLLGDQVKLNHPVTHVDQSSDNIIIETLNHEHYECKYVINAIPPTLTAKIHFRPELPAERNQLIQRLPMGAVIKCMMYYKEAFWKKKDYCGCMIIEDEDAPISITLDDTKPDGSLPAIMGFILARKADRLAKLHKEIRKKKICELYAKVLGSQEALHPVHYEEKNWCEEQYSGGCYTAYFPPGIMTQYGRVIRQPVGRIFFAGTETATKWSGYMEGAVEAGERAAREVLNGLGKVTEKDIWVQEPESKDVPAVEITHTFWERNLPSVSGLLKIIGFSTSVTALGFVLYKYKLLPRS
Protocol: The in vitro fluorometric enzymatic assay, allowing to sensitively detect monoamine oxidase activity, was applied to investigate hMAO-A and hMAO-B inhibitory potential of compounds 3a–3j. The method was performed in two steps, as previously described. […]
An enzyme inhibition assay was performed according to our recent study. The inhibitor (20 μL/well) and hMAO-A (100 μL/well) or hMAO-B solution (100 μL/well) was added to the fine black-bottom 96-well microtiter plate and the mixture was incubated at 37 °C for 30 min. After the incubation period, the reaction was started by adding a working solution (100 μL/well) ([…] Amplex Red reagent, 1 U/mL horseradish peroxidase and 1 mM p-tyramine) and all pipetting processes were performed using a Biotek Precision XS robotic system (BioTek Instruments, Winooski, VT, USA).
The production of H2O2 and, subsequently, of resorufin was quantified at 37 °C in a BioTek-Synergy H1 microplate reader based on the fluorescence generated (excitation, 535 nm, emission, 587 nm) over a 15 min period, in which the fluorescence increased linearly. Control experiments were carried out simultaneously by replacing the inhibitor solution with 2% DMSO (20 μL). In order to check the probable inhibitory effect of inhibitors on horseradish peroxidase, a parallel reading was achieved by replacing enzyme solutions with 3% H2O2 solution (20 mM 100 μL/well). In addition, the probable capacity of the inhibitors to modify the fluorescence generated in the reaction mixture due to non-enzymatic inhibition was determined by mixing inhibitor and working solutions.
The specific fluorescence emission (used to obtain the final results) was calculated after subtraction of the background activity, which was determined from vials containing all components except the hMAO isoforms, which were replaced by phosphate buffer (100 μL/well). Blank, control and all concentrations of inhibitors were analyzed in quadruplicate and inhibition percent was calculated by using following equation: % Inhibition=(FCt2−FCt1)−(FIt2−FIt1)/FCt2−FCt1×100 where FCt2 is the fluorescence of a control well measured at t2 time; FCt1 is the fluorescence of a control well measured at t1 time; FIt2 is the fluorescence of an inhibitor well measured at t2 time; and FIt1 is the fluorescence of an inhibitor well measured at t1 time.
The IC50 values were calculated from a dose-response curve obtained by plotting the percentage inhibition versus the log concentration with the use of GraphPad PRISM software (version 5.0, GraphPad Software Inc., La Jolla, CA, USA).

[1] = cytotoxicity test (MTT) on NIH/3T3 cells; assay type: cell-based, mouse; conditions: mouse, NIH/3T3 mouse embryonic fibroblast cells (ATCC CRL-1658); MTT assay, 1000 µM to 0.316 µM; read-out: IC50 (cytotoxic activity against NIH/3T3 cell line)
Protocol: (§1) The healthy NIH/3T3 mouse embryonic fibroblast cell line (ATCC CRL1658), proposed by ISO (10993-5, 2009) for preliminary cytotoxicity screening of drug candidates, was used to evaluate the cytotoxicity of compound 3e. The IC50 value of the compound 3e is represented in Table 3.
(§2) NIH/3T3 mouse embryonic fibroblast cell line (ATCC® CRL-1658™, London, UK) was used in the cytotoxicity test and, initially, NIH/3T3 cells were incubated in Dulbecco’s Modified Eagle’s Medium (DMEM). NIH/3T3 cells were added to 96-well culture plates (10,000 cells/well). Synthesized compounds and reference agents were added to the 96-well culture plates at various concentrations ranging from 1000 µM to 0.316 µM. MTT assay was performed as previously described. Dose-response curves were plotted against compound concentrations applied to determine IC50 values.

[2] = system: NIH/3T3 mouse embryonic fibroblast cell line; assay: cytotoxicity test (MTT) on NIH/3T3 cells; assay type: cell-based
Protocol: as §1, §2

inhibition at 1000 µM (hMAO-A; 10^−3 M): 22.1%
inhibition at 100 µM (hMAO-A; 10^−4 M): 18.6%
melting point: 177.2 to 178.6 °C
Structure (SMILES): COc1ccc2sc(SCC(=O)NN=Cc3ccc([N+](=O)[O-])s3)nc2c1 [Compound 3e, 2-((5-Methoxybenzothiazol-2-yl)thio)-N′-((5-nitrothiophen-2-yl)methylene)acetohydrazide]
IC50 [1]: 19 ± 1.03 µM
fold IC50 against NIH/3T3 higher than IC50 against hMAO-B ([2]; IC50 NIH/3T3 vs IC50 hMAO-B): ca. 300 fold
cytotoxicity (in words) ([2]; NIH/3T3, at its effective concentration): not cytotoxic; also recorded: non-cytotoxic
